Columns and labels:
Type in all cases: in vivo
[1] = tested on: Wild Oats; test: Pre-emergence herbicidal activity (Example 31); conditions: after three weeks
Outline: (§1)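 Seeded soil boxes (seeds at 2 cm) were sprayed with water-diluted emulsifiable concentrates or milled suspensions, then held under glass. Three weeks later, visual scoring: 0 = 0–25% damage, 3 = 75–99% kill, 3+ = complete kill; unsprayed duplicate boxes as reference.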

[2] = tested on: Wheat; test: Pre-emergence herbicidal activity (Example 31); parameters: key: 0-3 scale: 0 = 0-25% damage, 3 = 75-99% kill, 3+ = 100% kill; conditions: after three weeks
Outline: as §1

[3] = tested on: Ryegrass; test: Pre-emergence herbicidal activity (Example 31); parameters: key: 0-3 scale: 0 = 0-25% damage, 3 = 75-99% kill, 3+ = 100% kill; conditions: after three weeks
Outline: as §1

[4] = tested on: Senecio vulgaris; test: Post-emergence herbicidal test, young pot plants (Example 33); conditions: after 14 days
Outline: (§2)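 Compounds emulsified in Span 80/Tween 20/methylcyclohexanone-water, diluted to 40 ml and sprayed onto young pot plants (post-emergence) or onto soil over sown seeds in fibre trays, then covered with fresh soil (pre-emergence). Damage scored 0–5 versus untreated controls, after 14 days post-emergence and 21 days pre-emergence.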

[5] = tested on: Polygonum aviculare; test: as above; conditions: 2.0 kg/ha, after 14 days
Outline: as §2

[6] = tested on: Rape; test: as above; conditions: 2.0 kg/ha, after 14 days
Outline: as §2

[7] = tested on: Maize; test: Pre-emergence herbicidal test, fibre trays (Example 33); parameters: key: 0 = 0-20% damage, 5 = complete kill, vs untreated control; conditions: after 21 days
Method: The compounds were formulated for test by mixing an appropriate amount with 5 ml of an emulsion prepared by diluting 160 ml of a solution containing 21.S g per litre of "Span" 80 and 78.2 g per litre of "Tween" 20 in methylcyclohexanone to 500 ml with water. "Span" 80 is a Trade Mark for a surface-active agent comprising sorbitan monolaurate. "Tween" 20 is a Trade Mark for a surface-active agent comprising a condensate of sorbitan monolaurate with 20 molar proportions of ethylene oxide. Each 5 ml emulsion containing a test compound was'then diluted to 40 ml with water and sprayed on to young pot plants (post-emergence test) of the species named in Table 5 below. Damage to test plants was assessed after 14 days on a scale of 0 to 5 where 0 is 0 to 20% damage and 5 is complete kill. In a test for pre-emergence herbicidal activity, seeds of the test plants were sown in a shallow slit formed in the surface of soil in fibre trays. The surface was then levelled and sprayed, and fresh soil then spread thinly over the sprayed surface. Assessment of herbicidal damage was carried out after 21 days using the same scale of 0 to 5 as the post-emergence test. In both cases the degree of herbicidal damage was assessed by comparison with untreated control plants. A dash (-) means that no experiment was carried out.

[8] = tested on: Mustard; test: Post-emergence herbicidal activity (Example 32); conditions: 3 weeks after spraying
Outline: (§3)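 Glasshouse-raised seedlings received a single foliar spray once 10–12.5 cm high. The dose form was a diluted emulsifiable concentrate or milled suspension. Three weeks later, damage was visually graded 0–3, where 3+ denotes complete kill.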

[9] = tested on: Sunflower; test: Post-emergence herbicidal activity (Example 32); conditions: 3 weeks after spraying
Outline: as §3

[10] = tested on: Japanese millet; test: Post-emergence herbicidal activity (Example 32); conditions: 3 weeks after spraying
Outline: as §3

[11] = tested on: Ryegrass; test: Post-emergence herbicidal activity (Example 32); conditions: 3 weeks after spraying
Outline: as §3

[12] = tested on: Ipomea; test: Post-emergence herbicidal activity (Example 32); conditions: 3 weeks after spraying
Outline: as §3

[13] = tested on: Polygonum aviculare; test: Pre-emergence herbicidal test, fibre trays (Example 33); conditions: after 21 days
Outline: as §2

[14] = tested on: Amaranthus retroflexus; test: as above; conditions: after 21 days
Outline: as §2

[15] = tested on: Chenopodium album; test: as above; conditions: 2.0 kg/ha, after 21 days
Outline: as §2

[16] = tested on: Wild Oats; test: Post-emergence herbicidal activity (Example 32); conditions: 3 weeks after spraying
Outline: as §3

Structure (SMILES) | damage to plants, Ot ([1]; 1 kg/ha) | damage to plants, Ot ([1]; 5 kg/ha) | damage to plants, Wh ([2]; 1 kg/ha) | damage to plants, Wh ([2]; 5 kg/ha) | damage to plants, Rg ([3]; 1 kg/ha) | damage to plants, Rg ([3]; 5 kg/ha) | damage to test plants, Sn ([4]; 2.0 kg/ha) | damage to test plants, Pi [5] | damage to test plants, Rp [6] | herbicidal damage, Mz ([7]; 2.0 kg/ha) | damage to plants, Ms ([8]; 1 kg/ha) | damage to plants, Ms ([8]; 5 kg/ha) | damage to plants, Sf ([9]; 1 kg/ha) | damage to plants, Sf ([9]; 5 kg/ha) | damage to plants, Jm ([10]; 1 kg/ha) | damage to plants, Jm ([10]; 5 kg/ha) | damage to plants, Rg ([11]; 1 kg/ha) | damage to plants, Rg ([11]; 5 kg/ha) | damage to plants, Ip ([12]; 1 kg/ha) | damage to plants, Ip ([12]; 5 kg/ha) | also measured
COC(=O)C(C)Oc1ccc(N(C)c2ccc(Cl)cc2Cl)cc1 (stereo not shown) [Compound 1, Methyl 2-[4-(2,4-dichloro-N-methylanilino)phenoxy]-propionate] | 0 (0 represents from 0 to 25% damage) | 0 (0 represents from 0 to 25% damage) | 0 (0 represents from 0 to 25% damage) | 0 (0 represents from 0 to 25% damage) | 1 | 3 (3 represents 75 to 99% kill) | 1 | 0 (0 is 0 to 20% damage) | 2 | 0 (0 is 0 to 20% damage) | 0 (0 represents 0 to 25% damage) | 0 (0 represents 0 to 25% damage) | 0 (0 represents 0 to 25% damage) | 0 (0 represents 0 to 25% damage) | 3+ (3+ represents 100% kill) | 3+ (3+ represents 100% kill) | 3+ (3+ represents 100% kill) | 3+ (3+ represents 100% kill) | 0 (0 represents 0 to 25% damage) | 0 (0 represents 0 to 25% damage) | 
COC(=O)C(C)Oc1ccc(N(C)c2ccc(Cl)cc2[N+](=O)[O-])cc1 (stereo not shown) [Compound 27] |  |  | 0 (0 represents from 0 to 25% damage) | 1 | 1 | 3 (3 represents 75 to 99% kill) | 1 | 0 (0 is 0 to 20% damage) | 0 (0 is 0 to 20% damage) | 1 | 0 (0 represents 0 to 25% damage) | 0 (0 represents 0 to 25% damage) | 0 (0 represents 0 to 25% damage) | 0 (0 represents 0 to 25% damage) | 3+ (3+ represents 100% kill) | 3+ (3+ represents 100% kill) | 3+ (3+ represents 100% kill) | 3+ (3+ represents 100% kill) | 0 (0 represents 0 to 25% damage) | 0 (0 represents 0 to 25% damage) | herbicidal damage, Pi ([13]; 2.0 kg/ha): 0 (0 is 0 to 20% damage); herbicidal damage, Am ([14]; 2.0 kg/ha): 0 (0 is 0 to 20% damage); herbicidal damage, Ca [15]: 0 (0 is 0 to 20% damage)
COC(=O)C(C)Oc1ccc(Nc2ccc(Cl)cc2[N+](=O)[O-])cc1 (stereo not shown) [Compound 28] | 2 | 3+ (3+ represents 100% kill) | 0 (0 represents from 0 to 25% damage) | 2 | 3 (3 represents 75 to 99% kill) | 3+ (3+ represents 100% kill) |  |  |  |  | 0 (0 represents 0 to 25% damage) | 0 (0 represents 0 to 25% damage) | 0 (0 represents 0 to 25% damage) | 0 (0 represents 0 to 25% damage) | 3+ (3+ represents 100% kill) | 3+ (3+ represents 100% kill) | 3+ (3+ represents 100% kill) | 3+ (3+ represents 100% kill) | 0 (0 represents 0 to 25% damage) | 0 (0 represents 0 to 25% damage) | damage to test plants, Sn ([4]; 1.0 kg/ha): 0 (0 is 0 to 20% damage); herbicidal damage, Mz ([7]; 1.0 kg/ha): 0 (0 is 0 to 20% damage); herbicidal damage, Pi ([13]; 1.0 kg/ha): 0 (0 is 0 to 20% damage); herbicidal damage, Am ([14]; 1.0 kg/ha): 0 (0 is 0 to 20% damage)
COC(=O)C(C)Oc1ccc(Nc2ccc(Br)cc2[N+](=O)[O-])cc1 (stereo not shown) [Compound 29] | 1 | 3+ (3+ represents 100% kill) | 1 | 1 | 2 | 3 (3 represents 75 to 99% kill) | 4 | 0 (0 is 0 to 20% damage) | 1 | 1 | 0 (0 represents 0 to 25% damage) | 0 (0 represents 0 to 25% damage) | 0 (0 represents 0 to 25% damage) | 0 (0 represents 0 to 25% damage) | 3 (3 represents 75 to 99% kill) | 3+ (3+ represents 100% kill) | 3 (3 represents 75 to 99% kill) | 3+ (3+ represents 100% kill) | 0 (0 represents 0 to 25% damage) | 0 (0 represents 0 to 25% damage) | herbicidal damage, Pi ([13]; 2.0 kg/ha): 0 (0 is 0 to 20% damage); herbicidal damage, Am ([14]; 2.0 kg/ha): 0 (0 is 0 to 20% damage); herbicidal damage, Ca [15]: 0 (0 is 0 to 20% damage)
COC(=O)C(C)Oc1ccc(N(C)c2ccc(Br)cc2[N+](=O)[O-])cc1 (stereo not shown) [Compound 30] | 1 | 3 (3 represents 75 to 99% kill) | 0 (0 represents from 0 to 25% damage) | 0 (0 represents from 0 to 25% damage) | 1 | 3+ (3+ represents 100% kill) | 2 | 0 (0 is 0 to 20% damage) | 1 | 2 | 0 (0 represents 0 to 25% damage) | 0 (0 represents 0 to 25% damage) | 0 (0 represents 0 to 25% damage) | 0 (0 represents 0 to 25% damage) | 3+ (3+ represents 100% kill) | 3+ (3+ represents 100% kill) | 3+ (3+ represents 100% kill) | 3+ (3+ represents 100% kill) | 0 (0 represents 0 to 25% damage) | 0 (0 represents 0 to 25% damage) | herbicidal damage, Pi ([13]; 2.0 kg/ha): 0 (0 is 0 to 20% damage); herbicidal damage, Am ([14]; 2.0 kg/ha): 1; herbicidal damage, Ca [15]: 0 (0 is 0 to 20% damage)
C#CCN(c1ccc(OC(C)C(=O)OC)cc1)c1ccc(C(F)(F)F)cc1[N+](=O)[O-] (stereo not shown) [Compound 81] |  |  |  |  | 3 (3 represents 75 to 99% kill) | 3+ (3+ represents 100% kill) |  | 0 (0 is 0 to 20% damage) | 0 (0 is 0 to 20% damage) | 3 | 0 (0 represents 0 to 25% damage) | 0 (0 represents 0 to 25% damage) | 0 (0 represents 0 to 25% damage) | 0 (0 represents 0 to 25% damage) | 3+ (3+ represents 100% kill) | 3+ (3+ represents 100% kill) | 3 (3 represents 75 to 99% kill) | 3+ (3+ represents 100% kill) | 0 (0 represents 0 to 25% damage) | 0 (0 represents 0 to 25% damage) | damage to plants, Ot ([16]; 1 kg/ha): 3+ (3+ represents 100% kill); damage to plants, Ot ([16]; 5 kg/ha): 3+ (3+ represents 100% kill); herbicidal damage, Pi ([13]; 2.0 kg/ha): 0 (0 is 0 to 20% damage); herbicidal damage, Am ([14]; 2.0 kg/ha): 0 (0 is 0 to 20% damage); herbicidal damage, Ca [15]: 0 (0 is 0 to 20% damage)

Source: patent EP0013144A1, “Substituted diphenylamine derivatives, compositions and herbicidal uses thereof, and processes for their preparation” (ICI AUSTRALIA LIMITED, priority 1978, dated 1980)
